# Measured values from patent US12533348B2, “Ferroportin-inhibitors for the use in the treatment of transfusion-dependent beta-thalassemia (TDT)” (Vifor (International) AG, priority 2019, dated 2026).
# “And” between values parts separate entries of the source, which are not always exact repeats. Equal entries are not always repeated.
# Tests used:
# [1] = Combination study DFX/Fpn127: clinical observations, mortality and body weight; format: in vivo, mouse; settings: for BW: th3/+ mice, mean
# Procedure: (§1) One day after switching to lid a blood sample was taken by tail vein incision to determine the baseline Hb levels. Hb was measured using a HaemoCue® device. Hb was also measured on days 8, 15, and 22 in the morning before dosing. The animals were dosed p.o. D with 30 mg/kg DFX in 30% Kolliphor, 120 mg/kg Fpn127 in 0.5% C, or both for a total of 17 doses during the 23 days of study. 30% Kolliphor and 0.5% C were dosed as vehicles. The dose of DFX was administered at the beginning of the dark cycle (active phase) at 9:00 followed by 3 h of access to lid. Then, mice were dosed with Fpn127 (or 0.5% C) and were given access to sd for a 6 h period before switched back to lid. On the dosing was paused and mi had access to lid ad libitum.
# Animals and their cages were checked daily by the experimenter during the study on working days. During the experimental phase, animals were weighted minimum once per week and scored according to their clinical symptoms: BW, general behavior and activity, appearance of hair coat, eyes, and nose. Clinical observations were recorded when present on separate score sheets.
# BW was recorded once before the start of the experimental phase on day −1. During the experimental phase, individual BW were recorded 1 to 2 times per week to calculate the dosing volume and to monitor weight loss.
# [2] = tested on: Hbb^th3/+ mouse model of β-thalassemia intermedia; test: Combination study: hemoglobin (HemoCue photometer); format: in vivo; settings: th3/+ mice, DFX 30 mg/kg QD, Fpn127 120 mg/kg QD p.o., mean
# Procedure: as §1
# Hb was measured on days 1, 8, 15 and 22. Individual Hb values were determined at the starting day of the experiment (day 1) and weekly thereafter during the experimental phase in the morning before the first daily dose. A blood sample was taken by tail vein incision and Hb was measured using a HemoCue® DM201 Hb photometer.
# [3] = tested on: Hbb^th3/+ mouse model of β-thalassemia intermedia; test: Combination study: erythroid differentiation stages in spleen by flow cytometry (Ter119/CD44/CD71); format: in vivo; settings: percent of parent Ter119+ spleen cells; female th3/+ mice; DFX 30 mg/kg QD, Fpn127 120 mg/kg QD p.o.; end of study; mean
# Text: Distinct stages of erythroid cell differentiation in spleens of female mice were identified by flow cytometry (CANTOII cytometer, BD Biosciences) using PE-conjugated rat anti-mouse CD71 (transferrin receptor-1, eBioscience, Cat. 12-0711), APC-conjugated rat anti-mouse Ter119 (erythroid lineage marker, eBioscience, Cat. 17-5921) and APC-Cy7-conjugated rat anti-mouse CD44 (adhesion molecule that progressively decreases on the surface of developing erythroid cells, BioLegend. Cat. 103028) antibodies. Data were analyzed using FlowJo® software (FlowJo. LLC, version 10.1) Serum Parameters
# [4] = tested on: Hbb^th3/+ mouse model of β-thalassemia intermedia; test: Combination study: serum iron (MULTIGENT Iron assay), transferrin ELISA and calculated TSAT; format: in vivo; settings: th3/+ mice, all animals, mean
# Procedure: […] Anesthetized animals were subsequently euthanized by cervical dislocation.
# Serum levels of iron were determined in triplicates using MULTIGENT Iron assay (Abbott Diagnostics, Cat. 6K95). Serum Transferrin (TO was measured in duplicates using a mouse-specific ELISA according to the manufacturer's instructions (Abcam, Cat. ab157724). Transferrin saturation (TSAT) was calculated using the formula: […]
# [5] = tested on: Hbb^th3/+ mouse model of β-thalassemia intermedia; test: Combination study: serum EPO (DuoSet ELISA); format: in vivo; settings: serum; th3/+ mice; day 23; DFX 30 mg/kg QD, Fpn127 120 mg/kg QD p.o.; all animals; mean
# Procedure: (§2) On day 23 (study end) 1 hour after dosing blood was collected by retro-orbital bleeding from pre-terminally anesthetized mice into BD Microtainer Tubes (Cat. 365967 and 365975) for determination of serum iron, transferrin, erythropoietin and compound exposure. Anesthetized animals were subsequently euthanized by cervical dislocation.
# (§3) [formula] Serum EPO was measured using a mouse-specific DuoSet ELISA according to the manufacturer's instructions (R&D Systems, Cat. DY959). Plasma concentrations of Fpn127 and DFX were measured at GVK Biosciences, Hyderabad, IN. Flow Cytometric Analysis of Intracellular ROS, Mitochondria, and PS Exposure
# [6] = Combination study: plasma concentrations of Fpn127 and DFX (LC-MS/MS); format: in vivo, mouse
# Procedure: as §2, §3
# Plasma was collected 1 hour after dosing of DFX on day 23 for determination of compound concentration by LC-MS/MS. Plasma exposure of DFX was similar in animals dosed with DFX alone or in combination with Fpn127 (FIG. 11, Table 12). […] As expected, plasma levels of Fpn127 were low as plasma was sampled approximately 20 h after the last dose of Fpn127.
# [7] = tested on: Hbb^th3/+ mouse model of β-thalassemia intermedia; settings: in vivo
# Procedure: The aim of this study was to test whether the concurrent use of the iron chelator DFX administered once daily (QD) alone at 30 mg/kg or in combination with Fpn127 administered QD at 120 mg/kg for 3 weeks is causing any therapeutic interactions in a mouse model of β-thalassemia intermedia (Hbb^th3/+; B6; 129P—b1tm1Unc-b2tm1Unc/J, Jackson Laboratories, Stock Number: 002683).
# Animals were euthanized 1 h after the last dose of DFX on study day 23 (dosing day 17).
# On the final study day (day 23), spleen, liver, and kidneys were collected and snap frozen in liquid nitrogen for further analysis, as outlined below. Wet weight of spleen, liver, and kidneys were recorded.
# Content of total Fe was determined in pieces of spleens, livers, and kidneys by ICP-OES in the Analytical Development group of Vifor (International) Ltd., St. Gallen.
# Individual wet weights of organs were recorded. Individual values of total Fe were measured in livers, spleens, and kidneys. Individual values of total Fe content and concentration were calculated. Mean±SD of total Fe concentration and content in livers, spleens, and kidneys was calculated for each group.
compound,measurement,setting,value
"O=C(O)c1ccc(-n2nc(-c3ccccc3O)nc2-c2ccccc2O)cc1 [DFX, deferasirox, reference compound]",tolerability / clinical symptoms,"[1]; Hbb^th3/+ mice, DFX 30 mg/kg QD, Fpn127 120 mg/kg QD p.o., 17 doses in 23 days",generally well tolerated
same,BW by the end of the study vs vehicle treated Hbb^th3/+ mice,[1]; males,slightly but significantly lower BW
same,BW,"[1]; DFX 30 mg/kg QD, Fpn127 120 mg/kg QD p.o., day 1, all animals",21.5 g
same,BW,"[1]; DFX 30 mg/kg QD, Fpn127 120 mg/kg QD p.o., day 1, females",19.2 ± 1.3 g and 19.2 g
same,BW,"[1]; DFX 30 mg/kg QD, Fpn127 120 mg/kg QD p.o., day 1, males",23.7 ± 1.3 g and 23.7 g
same,BW,"[1]; DFX 30 mg/kg QD, Fpn127 120 mg/kg QD p.o., day 3, all animals",23.2 g
same,BW,"[1]; DFX 30 mg/kg QD, Fpn127 120 mg/kg QD p.o., day 3, females",20.9 g
same,BW,"[1]; DFX 30 mg/kg QD, Fpn127 120 mg/kg QD p.o., day 3, males",25.6 g
same,BW,"[1]; DFX 30 mg/kg QD, Fpn127 120 mg/kg QD p.o., day 7, all animals",23.2 g
same,BW,"[1]; DFX 30 mg/kg QD, Fpn127 120 mg/kg QD p.o., day 7, females",21.0 g
same,BW,"[1]; DFX 30 mg/kg QD, Fpn127 120 mg/kg QD p.o., day 7, males",25.4 g
same,BW,"[1]; DFX 30 mg/kg QD, Fpn127 120 mg/kg QD p.o., day 10, all animals",22.9 g
same,BW,"[1]; DFX 30 mg/kg QD, Fpn127 120 mg/kg QD p.o., day 10, females",20.6 g
same,BW,"[1]; DFX 30 mg/kg QD, Fpn127 120 mg/kg QD p.o., day 10, males",25.2 g
same,BW,"[1]; DFX 30 mg/kg QD, Fpn127 120 mg/kg QD p.o., day 14, all animals",23.0 g
same,BW,"[1]; DFX 30 mg/kg QD, Fpn127 120 mg/kg QD p.o., day 14, females",20.7 g
same,BW,"[1]; DFX 30 mg/kg QD, Fpn127 120 mg/kg QD p.o., day 14, males",25.2 g
same,BW,"[1]; DFX 30 mg/kg QD, Fpn127 120 mg/kg QD p.o., day 17, all animals",22.8 g
same,BW,"[1]; DFX 30 mg/kg QD, Fpn127 120 mg/kg QD p.o., day 17, females",20.4 g
same,BW,"[1]; DFX 30 mg/kg QD, Fpn127 120 mg/kg QD p.o., day 17, males",25.2 g
same,BW,"[1]; DFX 30 mg/kg QD, Fpn127 120 mg/kg QD p.o., day 22, all animals",23.3 g
same,BW,"[1]; DFX 30 mg/kg QD, Fpn127 120 mg/kg QD p.o., day 22, females",20.8 g
same,BW,"[1]; DFX 30 mg/kg QD, Fpn127 120 mg/kg QD p.o., day 22, males",25.9 g
same,Hb concentration,"[2]; day 1 (before dosing), all animals",84 g/L
same,Hb concentration,"[2]; day 1 (before dosing), females",86 ± 2 g/L and 86 g/L
same,Hb concentration,"[2]; day 1 (before dosing), males",82 ± 3 g/L and 82 g/L
same,Hb concentration,"[2]; day 8, all animals",98 g/L
same,Hb concentration,"[2]; day 8, females",99 g/L
same,Hb concentration,"[2]; day 8, males",96 g/L
same,Hb concentration,"[2]; day 15, all animals",81 g/L
same,Hb concentration,"[2]; day 15, females",82 g/L
same,Hb concentration,"[2]; day 15, males",80 g/L
same,Hb concentration,"[2]; day 22, all animals",86 g/L
same,Hb concentration,"[2]; day 22, females",85 g/L
same,Hb concentration,"[2]; day 22, males",88 g/L
same,"basophilic erythroblasts, frequency of parent",[3],8.21%
same,"mature erythrocytes, frequency of parent",[3],32.35%
same,"orthochromatic erythroblasts, frequency of parent",[3],23.48%
same,"polychromatic erythroblasts, frequency of parent",[3],23.90%
same,"pro-erythroblasts, frequency of parent",[3],3.29%
same,TSAT,"[4]; calculated from Tf and serum iron, day 23, 1 h after last DFX dose, approx. 20 h after last Fpn127 dose",27.5%
same,serum iron,"[4]; day 23, 1 h after last DFX dose (30 mg/kg), approx. 20 h after last Fpn127 dose (120 mg/kg)",30.8 ± 5.9 µM and 30.8 µM
same,EPO,[5],5277 ± 1710 pg/mL and 5277 pg/mL
same,"plasma exposure of DFX, alone vs in combination with Fpn127",[6]; 1 hour after dosing of DFX on day 23 (FIG. 11),similar
same,concentration at 1 h,"[6]; both sexes, Hbb^th3/+ (B6; 129P—b1tm1Unc-b2tm1Unc/J), mouse, oral, 30 mg/kg, th3/+ mice, all animals, plasma collected 1 hour after dosing of DFX on day 23, LC-MS/MS, read-out: Plasma exposure of DFX at the end of the study (mean)",15400 ng/mL
same,effect on kidney weight vs vehicle-treated Hbbth3/+ mice,[7],no effect on kidney weight
same,effect on liver weight vs vehicle-treated Hbbth3/+ mice,[7],no effect on liver weight
